Test results: patent US20050163849A1 (priority 2003, published 2005)

Test: Intracolonic ligated model, lower G.I. absorption and bioavailability of iron-transport moiety complexes
Settings: rat, intracolonic bolus into ligated colon, 10 mg iron/rat
Experimental: Absorption of the complexes is evaluated from blood samples taken from the animal as a function of time after intubation. A rise in the hematocrit level in the blood is indicative of absorption.
A segment of proximal colon is isolated and the colon is flushed of fecal materials. […] The colonic contents are flushed out and the colon is returned to the abdomen of the animal.
At the end of the 4 hour test period, the rats are euthanized with an overdose of pentobarbital. Colonic segments from each rat are excised and opened longitudinally along the anti-mesenteric border. Each segment is observed macroscopically for irritation and any abnormality noted. The excised colons are placed on graph paper and measured to approximate colonic surface area.

ferrous laurate [ferrous-laurate complex]
Increased absorption relative to ferrous sulfate (change in hematocrit level): at least two-fold
